Target: T1, human RXFP1 (Homo sapiens, UniProt Q9HBX9)
T1 construct: expressed in transfected cells
T1 sequence (Q9HBX9 1-757): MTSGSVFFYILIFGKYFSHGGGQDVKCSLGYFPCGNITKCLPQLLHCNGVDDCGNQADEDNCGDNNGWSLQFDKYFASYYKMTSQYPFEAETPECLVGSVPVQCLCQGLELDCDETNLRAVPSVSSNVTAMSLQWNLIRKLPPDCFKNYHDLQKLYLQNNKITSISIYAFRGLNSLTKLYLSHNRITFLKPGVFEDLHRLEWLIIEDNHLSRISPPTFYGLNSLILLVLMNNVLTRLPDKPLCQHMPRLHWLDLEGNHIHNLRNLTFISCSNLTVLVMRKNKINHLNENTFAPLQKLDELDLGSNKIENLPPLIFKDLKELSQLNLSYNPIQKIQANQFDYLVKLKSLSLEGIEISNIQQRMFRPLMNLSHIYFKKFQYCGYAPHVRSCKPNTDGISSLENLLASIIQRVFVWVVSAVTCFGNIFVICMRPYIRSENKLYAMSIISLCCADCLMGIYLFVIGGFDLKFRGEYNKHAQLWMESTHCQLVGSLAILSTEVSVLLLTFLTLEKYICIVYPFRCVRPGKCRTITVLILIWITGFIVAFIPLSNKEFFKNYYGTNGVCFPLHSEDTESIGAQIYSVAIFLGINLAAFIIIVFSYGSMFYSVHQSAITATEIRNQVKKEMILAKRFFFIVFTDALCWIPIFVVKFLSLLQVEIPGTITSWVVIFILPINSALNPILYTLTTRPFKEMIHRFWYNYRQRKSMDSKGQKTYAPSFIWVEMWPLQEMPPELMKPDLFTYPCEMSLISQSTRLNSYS
Experiment: human RXFP1 (hRXFP1) HEK293 cAMP assay (HTRF)
Format: cell-based
Details: HEK293 cells stably expressing human RXFP1, 30 min at room temperature
Procedure, shortened: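 Intracellular cAMP was quantified by HTRF after a 30 min room-temperature exposure of hRXFP1-HEK293 cells (1500/well) to compound at 0.010 nM–50 µM final, 2% DMSO. Buffer was HBSS with 20 mM HEPES, 0.05% BSA and 0.5 mM IBMX; values came from a 4-parameter logistic fit.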

`COc1ncc(C2=NOC3CC(CO)CC23)cc1C(=O)N[C@H]1[C@@H](C(=O)N[C@H](C)C2(C)CC(F)(F)C2)[C@H]2CC[C@@H]1/C2=C\C1CC1` (stereo partly drawn) [Example 140, N-((1R,2R,3S,4R,Z)-7-(cyclopropyl-methylene)-3-(((R)-1-(3,3-difluoro-1-methylcyclobutyl)ethyl)carbamoyl)bicyclo[2.2.1]heptan-2-yl)-5-(5-(hydroxymethyl)-3a,5,6,6a-tetrahydro-4H-cyclopenta[d]isoxazol-3-yl)-2-methoxynicotinamide] was tested. Which EC50 did it give?
The EC50 was 3.2 nM.

For `COc1ncc(C2=NOC3CC(CO)CC23)cc1C(=O)N[C@@H]1C2CCC(/C2=C/C2CC2)[C@@H]1C(=O)N[C@H](C)C1(C(F)(F)F)CC1` (stereo partly drawn) [Example 141], which EC50 is on record?
Its EC50 is 3.4 nM.

`CC1(C)Cc2cc(C3=NOC4CC(CO)CC34)cc(C(=O)N[C@@H]3C4CCC(/C4=C/C4CC4)[C@@H]3C(=O)Nc3ccc(F)c(C(F)(F)F)c3)c2O1` (stereo partly drawn) [Example 144] was tested. Which EC50 did it give?
Its EC50 is 2 nM.

For `CC1(C)Cc2cc(C3=NOC4COCC34)cc(C(=O)N[C@@H]3C4CCC(/C4=C/C4CC4)[C@@H]3C(=O)Nc3ccc(F)c(C(F)(F)F)c3)c2O1` (stereo partly drawn) [Example 145, 5-{3aH,4H,6H,6aH-furo[3,4-d][1,2]oxazol-3-yl}-N-[(1R,2R,3S, 4R,7Z,)-7-(cyclopropyl-methylidene)-3-{[4-fluoro-3-(trifluoromethyl)phenyl]carbamoyl}bicyclo[2.2.1]heptan-2-yl]-2,2-dimethyl-2,3-dihydro-1-benzofuran-7-carboxamide], which EC50 is on record?
Its EC50 is 3 nM.

Which EC50 does the source give for `CC(C)(C)CNC(=O)[C@@H]1[C@H](NC(=O)c2cc(C3=NOC4CC(CO)CC34)cc3c2OC(C)(C)C3)[C@@H]2CC[C@H]1/C2=C/C1CC1` (stereo partly drawn) [Example 146, N-[(1R,2R,3S, 4R,7Z)-7-(cyclopropyl-methylidene)-3-[(2,2-dimethylpropyl)carbamoyl]bicyclo [2.2.1]heptan-2-yl]-5-[5-(hydroxymethyl)-3aH,4H,5H,6H,6aH-cyclopenta[d][1,2]oxazol-3-yl]-2,2-dimethyl-2,3-dihydro-1-benzofuran-7-carboxamide] here?
Its EC50 is 3.5 nM.

How did the EC50 turn out when `CC1(C)Cc2cc(C3=NOC4CCOCC34)cc(C(=O)N[C@H]3[C@@H](C(=O)Nc4ccc(F)c(C(F)(F)F)c4)[C@H]4CC[C@@H]3/C4=C\C3CC3)c2O1` (stereo partly drawn) [Example 147, 5-{3aH,4H,6H, 7H,7aH-pyrano[3,4-d][1,2]oxazol-3-yl}-N-[(1R,2R,3S,4R,7Z)-7-(cyclopropyl-methylidene)-3-{[4-fluoro-3-(trifluoromethyl)phenyl]carbamoyl}bicyclo[2.2.1]heptan-2-yl]-2,2-dimethyl-2,3-dihydro-1-benzofuran-7-carboxamide] was run?
The EC50 was 3.8 nM.

Which EC50 does the source give for `COc1ncc(-c2cc([C@H](OC(=O)NC3CCC3)C(F)(F)F)ccc2F)cc1C(=O)N[C@H]1[C@@H](C(=O)NC(C)C2(C)CC2)[C@H]2CC[C@@H]1/C2=C\C1CC(F)(F)C1` (stereo partly drawn) [Example 148, (S)-1-(3-(5-(((1R,2R,3S,4R, Z)-7-((3,3-difluorocyclobutyl)methylene)-3-(((R)-1-(1-methylcyclopropyl)ethyl)carbamoyl)bicyclo[2.2.1]heptan-2-yl)carbamoyl)-6-methoxypyridin-3-yl)-4-fluorophenyl)-2,2,2-trifluoroethyl cyclobutylcar-bamate] here?
The EC50 was 0.5 nM.

With `COc1ncc(C(=O)NCC2(S(C)(=O)=O)CC2)cc1C(=O)N[C@H]1[C@@H](C(=O)N[C@H](C)C2(C)CC2)[C@H]2CC[C@@H]1/C2=C\C1CC1` [Example 149, N3-[(1R,2R,3S,4R, 7Z)-7-(cyclopropyl-methylidene)-3-{[(1R)-1-(1-methylcyclopropyl)ethyl]carbamoyl}bicyclo[2.2.1]heptan-2-yl]-N5-[(1-methanesulfonylcyclopropyl)methyl]-2-methoxypyridine-3,5-dicarboxamide] as the molecule, how does the EC50 read?
The EC50 was 2.7 nM.

How did the EC50 turn out when `COc1ncc(-c2c(C)nn3c2COCC3)cc1C(=O)N[C@H]1[C@@H](C(=O)Nc2ccc(F)c(C(F)(F)F)c2)[C@H]2CC[C@@H]1/C2=C\C1CCCC1` [Example 150, N-[(1R,2R,3S,4R, 7Z)-7-(cyclopentyl-methylidene)-3-{[4-fluoro-3-(trifluoromethyl)phenyl]carbamoyl}bicyclo[2.2.1]heptan-2-yl]-2-methoxy-5-{2-methyl-4H,6H,7H-pyrazolo[3,2-c][1,4]oxazin-3-yl}pyridine-3-carboxamide] was run?
Its EC50 is 5.3 nM.

`COc1ncc(C(=O)N2CC(S(C)(=O)=O)C2)cc1C(=O)N[C@H]1[C@@H](C(=O)N[C@H](C)C2(C)CC2)[C@H]2CC[C@@H]1/C2=C\C1CC1` [Example 151, N-[(1R,2R,4R,7Z)-7-(cyclopropyl-methylidene)-3-{[(1R)-1-(1-methylcyclopropyl)ethyl]carbamoyl}bicyclo[2.2.1]heptan-2-yl]-5-(3-methanesulfonylazetidine-1-carbonyl)-2-methoxypyridine-3-carboxamide] was tested. Which EC50 did it give?
Its EC50 is 3.5 nM.

With `CC1Cc2cc(C3=NOC4CC(CO)CC34)cc(C(=O)N[C@@H]3C4CCC(/C4=C/C4CC4)[C@@H]3C(=O)N[C@H](C)C3(C)CC3)c2O1` (stereo partly drawn) [Example 152] as the molecule, how does the EC50 read?
Its EC50 is 9 nM.

For `CC1Cc2cc(C3=NOC4CC(CO)CC34)cc(C(=O)N[C@H]3[C@@H](C(=O)N[C@H](C)C4(C)CC4)[C@H]4CC[C@@H]3/C4=C\C3CC3)c2O1` (stereo partly drawn) [Example 153, N-[(1R,2R,3S,4R, 7Z)-7-(cyclopropyl-methylidene)-3-{[(1R)-1-(1-methylcyclopropyl)ethyl]carbamoyl}bicyclo[2.2.1]heptan-2-yl]-5-[5-(hydroxymethyl) 3aH,4H,5H,6H, 6aH-cyclopenta[d][1,2]oxazol-3-yl]-2-methyl-2,3-dihydro-1-benzofuran-7-carboxamide], which EC50 is on record?
Its EC50 is 4.6 nM.

How did the EC50 turn out when `CC1Cc2cc(C3=NOC4CC(O)CC34)cc(C(=O)N[C@H]3[C@@H](C(=O)Nc4ccc(F)c(C(F)(F)F)c4)[C@H]4CC[C@@H]3/C4=C\C3CC3)c2O1` (stereo partly drawn) [Example 154, N-[(1R,2R,3S,4R, 7Z)-7-(cyclopropyl-methylidene)-3-{[4-fluoro-3-(trifluoromethyl)phenyl]carbamoyl}bicyclo[2.2.1]heptan-2-yl]-5-{5-hydroxy-3aH,4H,5H,6H, 6aH-cyclopenta[d][1, 2]oxazol-3-yl}-2-methyl-2,3-dihydro-1-benzofuran-7-carboxamide] was run?
Its EC50 is 4.1 nM.

For `CC1Cc2cc(C3=NOC4CC(O)CC34)cc(C(=O)N[C@@H]3C4CCC(/C4=C/C4CC4)[C@@H]3C(=O)Nc3ccc(F)c(C(F)(F)F)c3)c2O1` (stereo partly drawn) [Example 155, N-[(1R,2R,3S,4R, 7Z)-7-(cyclopropyl-methylidene)-3-{[4-fluoro-3-(trifluoromethyl)phenyl]carbamoyl}bicyclo[2.2.1]heptan-2-yl]-5-{5-hydroxy-3aH,4H,5H,6H, 6H-cyclopenta[d][1,2]oxazol-3-yl}-2-methyl-2,3-dihydro-1-benzofuran-7-carboxamide], which EC50 is on record?
Its EC50 is 6.8 nM.

Which EC50 does the source give for `CC1Cc2cc(C3=NOC4CC(O)(C(F)(F)F)CC34)cc(C(=O)N[C@H]3[C@@H](C(=O)Nc4ccc(F)c(C(F)(F)F)c4)[C@H]4CC[C@@H]3/C4=C\C3CCCC3)c2O1` (stereo partly drawn) [Example 156, N-[(1R,2R,3S,4R, 7Z)-7-(cyclopentyl-methylidene)-3-{[4-fluoro-3-(trifluoromethyl)phenyl]carbamoyl}bicyclo[2.2.1]heptan-2-yl]-5-[5-hydroxy-5-(trifluoromethyl) 3aH,4H,5H,6H, 6aH-cyclopenta[d][1,2]oxazol-3-yl]-2-methyl-2,3-dihydro-1-benzofuran-7-carboxamide] here?
Its EC50 is 1.3 nM.

With `COc1ncc(C2=NOC(C)(CO)C2)cc1C(=O)N[C@H]1[C@@H](C(=O)Nc2ccc(F)c(C(F)(F)F)c2)[C@H]2CC[C@@H]1/C2=C\C1CC1` (stereo partly drawn) [Example 157, N-[(1R,2R,3S,4R, 7Z)-7-(cyclopropyl-methylidene)-3-{[4-fluoro-3-(trifluoromethyl)phenyl]carbamoyl}bicyclo[2.2.1]heptan-2-yl]-5-[5-(hydroxymethyl)-5-methyl-4,5-dihydro-1,2-oxazol-3-yl]-2-methoxypyridine-3-carboxamide] as the molecule, how does the EC50 read?
Its EC50 is 5.6 nM.

`COc1cc(C2=NOC3CC(COC(=O)Nc4ccccc4)CC23)cc(C(=O)N[C@@H]2C3CCC(/C3=C/C3CC3)[C@@H]2C(=O)Nc2ccc(F)c(C(F)(F)F)c2)n1` (stereo partly drawn) [Example 158, [3-(2-{[(2R,3S,7Z)-7-(cyclopropyl-methylidene)-3-{[4-fluoro-3-(trifluoromethyl)phenyl]carbamoyl}bicyclo[2.2.1]heptan-2-yl]carbamoyl}-6-methoxypyridin-4-yl)-3aH,4H,5H,6H, 6aH-cyclopenta[d][1,2]oxazol-5-yl]methyl N-phenylcarbamate] was tested. Which EC50 did it give?
Its EC50 is 7.8 nM.

How did the EC50 turn out when `COc1ncc(C2=NOC3CC(C(C)O)CC23)cc1C(=O)N[C@H]1[C@@H](C(=O)N[C@H](C)C2(C)CC2)[C@H]2CC[C@@H]1/C2=C\C1CC1` (stereo partly drawn) [Example 159, N-[(1R,2R,3S,4R, 7Z)-7-(cyclopropyl-methylidene)-3-{[(1R)-1-(1-methylcyclopropyl)ethyl]carbamoyl}bicyclo[2.2.1]heptan-2-yl]-5-[5-(1-hydroxyethyl)-3aH,4H,5H,6H, 6aH-cyclopenta[d][1,2]oxazol-3-yl]-2-methoxypyridine-3-carboxamide] was run?
Its EC50 is 6.1 nM.

— patent US20250011288A1 (BRISTOL-MYERS SQUIBB COMPANY, priority 2021, published 2025)
